Read-outs that look alike come from different tables or passages of the source.
How the values were obtained:
A549 (lung) = experiment: Cancer cell proliferation assay (acid phosphatase); type: cell-based; settings: Homo sapiens
Summary of the method: (§1)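 Growth inhibition is expressed as a percentage of DMSO-treated control cells, using absorbance at 405 nm corrected at 620 nm after acid phosphatase conversion of p-nitrophenol phosphate. Compound exposure lasts 72 hrs at 37° C. following overnight attachment.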

HCT-116 (colon) = experiment: Cancer cell proliferation assay (acid phosphatase); type: cell-based; settings: Homo sapiens
Summary of the method: as §1

LS-174T (colon) = experiment: Cancer cell proliferation assay (acid phosphatase); type: cell-based; settings: Homo sapiens, LS174T; Table 6A; 72 hrs
Summary of the method: as §1

Calu-6 (lung) = experiment: Cancer cell proliferation assay (acid phosphatase); type: cell-based; settings: Homo sapiens, Table 6A, 72 hrs, read-out: Calu6 IC50
Summary of the method: as §1

[1] = Microsomal stability assay, human liver microsomes; type: in vitro ADME; settings: pH 7.4; human liver microsomes 1.0 mg/mL, 1 μM compound, NADPH; read-out: HLM t1/2
Experimental: Compounds were also tested for metabolic stability in both rat liver microsomes (RLM) and the compounds are tested for human liver microsomes (HLM) and their half-life is calculated (See Tables 5A and 5B). The assay was performed as follows. The total volume for each incubation was 250 μL. A 100 μM DMSO solution of compound (diluted from 10 mM stock solution) was spiked into 50 mM KH2PO4 (pH 7.4) buffer containing liver microsome at a concentration of 1.0 mg/mL. The reaction was initiated by the addition of 50 μL of 1 mM NADPH. The final concentration of each compound was 1 μM (1% DMSO). The positive controls, phenacetin for CYP1A2, diclofenac for CYP2C9, omeprazole for CYP2C19, dextromethorphan for CYP2D6 and midazolam for CYP3A4 were added to a separate tube with the final substrate concentrations of 1 μM (1% DMSO) for evaluating the enzyme activities in the liver microsomes. At 0, 15, 30 and 60 min, an aliquot of 15 μL reaction mixtures were removed and 200 μL of methanol (with internal standard of 25 ng/mL propranolol) was added to quench the reaction. The resulting mixture was centrifuged and supernatant was used for LC-MS/MS analysis.
The signals for each compound, or the metabolites for the probe substrates and the internal standard were integrated and the peak area ratios to internal standard were generated. Percent parent remaining at a specified timepoint was calculated based on the peak area ratios at time 0 (as 100%) for in vitro metabolic stability studies in liver microsome and hepatocyte. The observed rate constant (kobs) for the metabolism of substrates was calculated by plotting the natural log of percentage substrate remaining versus time of incubation with the slope being kobs. The half-life (T1/2) was calculated according to the following equation: T1/2=[…]

CYP2C9 = CYP2C9 (Homo sapiens, UniProt P11712); experiment: CYP inhibition assay; type: in vitro ADME; settings: read-out: % Inhibition at 30 μM CYP 2C9
GSK3B (GSK3 beta) = GSK3B (GSK3 beta) (Homo sapiens, UniProt P49841); experiment: Kinase panel assay; type: biochemical
GSK3B (GSK3 beta), sequence (P49841 whole entry, species assumed): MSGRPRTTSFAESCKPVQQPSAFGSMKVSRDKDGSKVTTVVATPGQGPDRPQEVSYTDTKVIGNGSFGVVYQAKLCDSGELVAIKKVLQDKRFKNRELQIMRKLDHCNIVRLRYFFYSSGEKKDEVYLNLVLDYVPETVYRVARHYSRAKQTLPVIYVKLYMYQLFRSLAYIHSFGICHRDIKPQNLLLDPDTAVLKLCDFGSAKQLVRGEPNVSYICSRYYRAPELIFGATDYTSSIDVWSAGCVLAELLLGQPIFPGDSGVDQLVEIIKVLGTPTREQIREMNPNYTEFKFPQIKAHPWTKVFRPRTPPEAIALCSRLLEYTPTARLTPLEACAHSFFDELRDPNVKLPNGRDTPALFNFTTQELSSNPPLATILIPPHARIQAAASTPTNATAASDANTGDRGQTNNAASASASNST
From the text: (§2) Compound 42 was also screened in a kinase panel assay.

PLK1 = PLK1 (Homo sapiens, UniProt P53350); experiment: Kinase panel assay; type: biochemical
PLK1, sequence (P53350 whole entry, species assumed): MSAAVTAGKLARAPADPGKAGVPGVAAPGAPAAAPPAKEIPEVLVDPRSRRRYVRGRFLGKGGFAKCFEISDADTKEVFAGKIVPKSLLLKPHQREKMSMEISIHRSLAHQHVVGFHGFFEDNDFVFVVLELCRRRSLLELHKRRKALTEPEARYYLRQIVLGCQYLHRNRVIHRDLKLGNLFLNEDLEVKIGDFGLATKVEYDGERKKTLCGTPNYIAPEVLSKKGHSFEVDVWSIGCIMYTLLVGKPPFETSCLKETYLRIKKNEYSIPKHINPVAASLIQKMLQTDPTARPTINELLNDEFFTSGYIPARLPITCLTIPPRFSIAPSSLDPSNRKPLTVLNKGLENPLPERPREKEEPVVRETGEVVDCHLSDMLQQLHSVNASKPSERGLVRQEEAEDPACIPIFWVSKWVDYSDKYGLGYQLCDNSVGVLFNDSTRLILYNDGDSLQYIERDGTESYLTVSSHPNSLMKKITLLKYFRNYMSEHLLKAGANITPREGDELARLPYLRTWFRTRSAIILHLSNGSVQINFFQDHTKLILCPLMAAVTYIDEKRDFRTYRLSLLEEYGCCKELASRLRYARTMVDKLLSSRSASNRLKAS
From the text: as §2

CDK4/CyclinD3 = CDK4/CyclinD3 (Homo sapiens, UniProt P11802); experiment: Kinase panel assay; type: biochemical
CDK4/CyclinD3, sequence (P11802 whole entry, species assumed): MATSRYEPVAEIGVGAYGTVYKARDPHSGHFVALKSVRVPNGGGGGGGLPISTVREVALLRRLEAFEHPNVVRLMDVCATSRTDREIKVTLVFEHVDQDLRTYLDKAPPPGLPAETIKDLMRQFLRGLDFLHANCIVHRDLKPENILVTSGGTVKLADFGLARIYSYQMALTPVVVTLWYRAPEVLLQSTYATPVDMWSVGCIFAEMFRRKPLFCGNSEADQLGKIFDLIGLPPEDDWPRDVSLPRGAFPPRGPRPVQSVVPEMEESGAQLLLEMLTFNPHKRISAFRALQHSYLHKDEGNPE
CDK4/CyclinD3, sequence (P30281 whole entry partner, species assumed): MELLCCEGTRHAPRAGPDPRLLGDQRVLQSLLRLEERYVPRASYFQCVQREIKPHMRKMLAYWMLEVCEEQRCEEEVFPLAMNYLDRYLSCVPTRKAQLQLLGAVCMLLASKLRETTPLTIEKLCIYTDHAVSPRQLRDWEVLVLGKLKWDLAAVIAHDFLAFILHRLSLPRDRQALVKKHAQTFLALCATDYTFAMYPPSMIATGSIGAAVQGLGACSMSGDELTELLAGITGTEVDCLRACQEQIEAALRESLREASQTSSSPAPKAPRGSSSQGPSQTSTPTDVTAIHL
From the text: as §2

CDK6/CyclinD1 = CDK6/CyclinD1 (Homo sapiens, UniProt Q00534); experiment: Kinase panel assay; type: biochemical
CDK6/CyclinD1, sequence (Q00534 whole entry, species assumed): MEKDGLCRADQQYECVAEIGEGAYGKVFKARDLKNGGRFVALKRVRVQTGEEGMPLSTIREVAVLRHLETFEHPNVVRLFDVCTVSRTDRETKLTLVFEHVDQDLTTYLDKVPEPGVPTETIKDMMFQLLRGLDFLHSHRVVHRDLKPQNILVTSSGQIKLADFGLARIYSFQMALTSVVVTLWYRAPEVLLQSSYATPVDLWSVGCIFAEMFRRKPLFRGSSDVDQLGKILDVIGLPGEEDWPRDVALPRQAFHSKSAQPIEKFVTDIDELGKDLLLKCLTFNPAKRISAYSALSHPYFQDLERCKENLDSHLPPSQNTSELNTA
CDK6/CyclinD1, sequence (P24385 whole entry partner, species assumed): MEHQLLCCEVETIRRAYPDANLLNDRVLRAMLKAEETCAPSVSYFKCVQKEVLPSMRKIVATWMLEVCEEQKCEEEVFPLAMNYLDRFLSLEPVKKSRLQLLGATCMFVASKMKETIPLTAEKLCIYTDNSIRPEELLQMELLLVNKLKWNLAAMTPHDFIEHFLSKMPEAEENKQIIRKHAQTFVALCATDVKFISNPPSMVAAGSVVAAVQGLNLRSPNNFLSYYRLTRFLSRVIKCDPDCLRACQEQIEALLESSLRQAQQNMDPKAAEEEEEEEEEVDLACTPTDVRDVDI
From the text: as §2

CDK2/Cyclin A = CDK2/Cyclin A (Homo sapiens, UniProt P24941); experiment: Kinase panel assay; type: biochemical
From the text: as §2

PIM1 = PIM1 (Homo sapiens, UniProt P11309); experiment: Kinase panel assay; type: biochemical
PIM1, sequence (P11309 whole entry, species assumed): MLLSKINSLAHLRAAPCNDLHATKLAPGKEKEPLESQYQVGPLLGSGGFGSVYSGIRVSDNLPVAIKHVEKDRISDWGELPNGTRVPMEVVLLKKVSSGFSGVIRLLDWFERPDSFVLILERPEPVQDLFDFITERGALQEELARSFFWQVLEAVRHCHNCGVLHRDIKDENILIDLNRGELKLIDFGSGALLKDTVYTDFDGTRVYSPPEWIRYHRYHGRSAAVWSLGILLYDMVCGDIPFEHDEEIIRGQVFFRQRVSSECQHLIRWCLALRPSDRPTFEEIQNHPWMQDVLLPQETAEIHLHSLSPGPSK
From the text: as §2

MAPK14 (p38 alpha) = MAPK14 (p38 alpha) (Homo sapiens, UniProt Q16539); experiment: Kinase panel assay; type: biochemical
MAPK14 (p38 alpha), sequence (Q16539 whole entry, species assumed): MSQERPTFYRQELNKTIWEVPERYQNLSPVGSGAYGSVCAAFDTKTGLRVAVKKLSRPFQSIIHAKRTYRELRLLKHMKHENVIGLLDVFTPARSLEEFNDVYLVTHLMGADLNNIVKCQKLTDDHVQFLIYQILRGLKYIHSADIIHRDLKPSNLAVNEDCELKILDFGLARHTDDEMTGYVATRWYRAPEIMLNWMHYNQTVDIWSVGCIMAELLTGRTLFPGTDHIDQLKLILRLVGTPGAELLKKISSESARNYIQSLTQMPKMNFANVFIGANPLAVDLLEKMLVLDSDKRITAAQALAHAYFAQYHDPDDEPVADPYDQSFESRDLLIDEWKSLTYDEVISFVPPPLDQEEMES
From the text: as §2

MAPK1 (ERK2) = MAPK1 (ERK2) (Homo sapiens, UniProt P28482); experiment: Kinase panel assay; type: biochemical
MAPK1 (ERK2), sequence (P28482 whole entry, species assumed): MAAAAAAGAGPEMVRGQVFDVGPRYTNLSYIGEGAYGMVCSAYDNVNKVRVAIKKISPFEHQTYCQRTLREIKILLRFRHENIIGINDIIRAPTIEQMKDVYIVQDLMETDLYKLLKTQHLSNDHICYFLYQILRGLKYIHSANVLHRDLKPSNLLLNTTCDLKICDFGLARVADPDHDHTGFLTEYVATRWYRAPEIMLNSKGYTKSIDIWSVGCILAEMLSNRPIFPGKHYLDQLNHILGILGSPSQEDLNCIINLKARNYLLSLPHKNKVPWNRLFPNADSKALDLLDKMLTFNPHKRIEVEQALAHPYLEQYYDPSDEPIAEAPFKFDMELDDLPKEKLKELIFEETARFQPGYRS
From the text: as §2

CDK4/CyclinD1 = CDK4/CyclinD1 (Homo sapiens, UniProt P11802); experiment: Kinase panel assay; type: biochemical
CDK4/CyclinD1, sequence (P11802 whole entry, species assumed): as the sequence (P11802 whole entry, species assumed) above
CDK4/CyclinD1, sequence (P24385 whole entry partner, species assumed): as the sequence (P24385 whole entry partner, species assumed) above
From the text: as §2

PAK4 = PAK4 (Homo sapiens, UniProt O96013); experiment: Kinase panel assay; type: biochemical
From the text: as §2

EGFR (ErbB1) = EGFR (ErbB1) (Homo sapiens, UniProt P00533); experiment: Kinase panel assay; type: biochemical
From the text: as §2

AURKA (Aurora A) = AURKA (Aurora A) (Homo sapiens, UniProt O14965); experiment: Kinase panel assay; type: biochemical
AURKA (Aurora A), sequence (O14965 whole entry, species assumed): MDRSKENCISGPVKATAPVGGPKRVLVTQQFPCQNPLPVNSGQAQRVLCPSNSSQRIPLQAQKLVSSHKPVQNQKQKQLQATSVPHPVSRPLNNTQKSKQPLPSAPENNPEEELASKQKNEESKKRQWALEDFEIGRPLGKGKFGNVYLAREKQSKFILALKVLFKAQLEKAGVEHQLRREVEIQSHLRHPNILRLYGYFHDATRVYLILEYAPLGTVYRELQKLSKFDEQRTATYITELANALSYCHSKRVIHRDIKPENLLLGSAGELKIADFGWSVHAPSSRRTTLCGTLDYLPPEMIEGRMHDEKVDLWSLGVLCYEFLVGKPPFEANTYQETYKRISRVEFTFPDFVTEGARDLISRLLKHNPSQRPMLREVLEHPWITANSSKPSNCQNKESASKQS
From the text: as §2

ABL1 = ABL1 (Homo sapiens, UniProt P00519); experiment: Kinase panel assay; type: biochemical
ABL1, sequence (P00519 whole entry, species assumed): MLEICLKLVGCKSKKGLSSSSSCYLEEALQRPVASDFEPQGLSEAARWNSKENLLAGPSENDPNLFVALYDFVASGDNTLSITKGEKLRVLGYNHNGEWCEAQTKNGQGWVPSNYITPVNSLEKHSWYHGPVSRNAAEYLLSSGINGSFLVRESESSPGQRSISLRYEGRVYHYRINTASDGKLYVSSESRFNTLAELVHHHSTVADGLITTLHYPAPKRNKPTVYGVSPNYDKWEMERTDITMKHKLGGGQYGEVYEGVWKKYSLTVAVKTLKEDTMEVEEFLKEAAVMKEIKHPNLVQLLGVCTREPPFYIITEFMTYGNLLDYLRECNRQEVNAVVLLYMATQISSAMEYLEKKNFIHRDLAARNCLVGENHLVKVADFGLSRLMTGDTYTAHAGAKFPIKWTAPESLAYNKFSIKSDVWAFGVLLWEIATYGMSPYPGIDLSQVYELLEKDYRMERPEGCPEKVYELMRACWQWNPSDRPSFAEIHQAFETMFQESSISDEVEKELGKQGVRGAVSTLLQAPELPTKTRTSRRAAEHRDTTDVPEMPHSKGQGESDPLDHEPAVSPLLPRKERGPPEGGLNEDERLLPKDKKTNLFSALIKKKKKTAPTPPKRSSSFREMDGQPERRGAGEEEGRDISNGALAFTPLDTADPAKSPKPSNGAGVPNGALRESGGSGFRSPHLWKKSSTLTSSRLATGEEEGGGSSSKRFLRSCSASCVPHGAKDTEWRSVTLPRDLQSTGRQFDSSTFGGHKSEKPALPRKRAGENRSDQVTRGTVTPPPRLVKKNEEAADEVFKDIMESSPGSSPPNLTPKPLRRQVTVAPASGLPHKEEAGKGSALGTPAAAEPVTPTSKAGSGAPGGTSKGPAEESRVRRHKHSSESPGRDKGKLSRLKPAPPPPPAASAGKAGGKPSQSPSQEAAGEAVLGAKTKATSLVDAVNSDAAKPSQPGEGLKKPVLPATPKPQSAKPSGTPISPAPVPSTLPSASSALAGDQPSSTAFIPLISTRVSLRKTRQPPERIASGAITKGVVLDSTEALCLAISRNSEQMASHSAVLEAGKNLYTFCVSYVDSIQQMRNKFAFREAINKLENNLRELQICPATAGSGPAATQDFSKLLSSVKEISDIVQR
From the text: as §2

[2] = A549, 72 h, Table 6A, 72 hrs, read-out: A549 IC50
[3] = HCT-116, 72 h, Table 6A, 72 hrs, read-out: HCT-116 IC50

In the case of `C#Cc1ccc(C(=O)Nc2nc(NC(=O)c3cccc(N=[N+]=[N-])c3)n(-c3ccccc3)n2)cc1` [Compound 2], the IC50 (A549 (lung); [2]) is reported as 2.2 µM and the IC50 (HCT-116 (colon); [3]) is reported as 642 µM.

`Cc1ccccc1C(=O)Nc1nc(NC(=O)c2ccccn2)nn1-c1ccccc1` [Compound 16] showed an IC50 (A549 (lung); [2]) of 2.6 µM.

Compound `Cc1ccccc1C(=O)Nc1nc(NC(=O)C2CCCN2)nn1-c1ccccc1` (stereo not drawn) [Compound 20] has an IC50 (LS-174T (colon)) greater than 1 µM.

In the case of `Cc1ccc(C(=O)Nc2nc(NC(=O)c3ccc(C)cc3)n(-c3ccccc3)n2)cc1` [Compound 21], the IC50 (A549 (lung); [2]) is reported as 2.5 µM, the IC50 (Calu-6 (lung)) is reported as greater than 2.5 µM and the IC50 (LS-174T (colon)) is reported as greater than 2.5 µM.

In the case of `COc1ccccc1C(=O)Nc1nc(NC(=O)c2ccccc2OC)n(-c2ccccc2)n1` [Compound 23], the IC50 (A549 (lung); [2]) is reported as greater than 2.5 µM, the IC50 (Calu-6 (lung)) is reported as greater than 2.5 µM and the IC50 (LS-174T (colon)) is reported as greater than 2.5 µM.

Compound `Cc1ccccc1C(=O)Nc1nc(NC(=O)c2ccccc2C)n(-c2ccc(F)c(F)c2)n1` [Compound 24] has a half-life at 1 μM [1] of 3.4 h, an IC50 (A549 (lung); [2]) of 0.28 µM and an IC50 (Calu-6 (lung)) of 0.29 µM. For the same compound, the IC50 (LS-174T (colon)) was 0.94 µM.

Work on `Cc1ccccc1C(=O)Nc1nc(NC(=O)c2ccccc2C)n(-c2ccc(C(F)(F)F)cc2)n1` [Compound 25] yielded a half-life at 1 μM [1] of 1.18 h, an IC50 (A549 (lung); [2]) of 0.04 µM and an IC50 (HCT-116 (colon); [3]) of 0.12 µM. It also gave an IC50 (Calu-6 (lung)) of 0.43 µM and an IC50 (LS-174T (colon)) of less than 0.2 µM.

In the case of `Cc1ccccc1C(=O)Nc1nc(NC(=O)c2ccccc2C)n(-c2ccccc2Cl)n1` [Compound 26], the IC50 (A549 (lung); [2]) is reported as 2.5 µM and the IC50 (LS-174T (colon)) is reported as greater than 1 µM.

Compound `Cc1ccc(-n2nc(NC(=O)c3ccccc3C)nc2NC(=O)c2ccccc2C)cc1` [Compound 31] has an IC50 (A549 (lung); [2]) of 2.5 µM and an IC50 (LS-174T (colon)) greater than 2.5 µM.

`Cc1ccccc1C(=O)Nc1nc(NC(=O)c2ccccc2C)n(-c2ccccc2F)n1` [Compound 32] showed an IC50 (A549 (lung); [2]) greater than 2.5 µM and an IC50 (LS-174T (colon)) greater than 2.5 µM.

Work on `O=C(Nc1nc(NC(=O)c2ccncc2)n(-c2ccccc2)n1)c1ccncc1` [Compound 33] yielded an IC50 (A549 (lung); [2]) greater than 2.5 µM.

Work on `Cc1ccccc1C(=O)Nc1nc(NC(=O)c2ccncc2)nn1-c1ccccc1` [Compound 34] yielded an IC50 (A549 (lung); [2]) of 2.5 µM and an IC50 (LS-174T (colon)) of 2.6 µM.

Compound `Cc1ccccc1C(=O)Nc1nc(NC(=O)c2ccccc2C)n(-c2ccc(C#N)cc2)n1` [Compound 35] has an IC50 (A549 (lung); [2]) of 2.4 µM and an IC50 (LS-174T (colon)) of 2.3 µM.

Compound `Cc1ccccc1C(=O)Nc1nc(NC(=O)c2ccccc2C)n(-c2cccc(Cl)c2)n1` [Compound 36] has a half-life at 1 μM [1] of 2.45 h, an IC50 (A549 (lung); [2]) of 0.22 µM and an IC50 (Calu-6 (lung)) of 0.17 µM. It also gave an IC50 (LS-174T (colon)) of 1.3 µM.

With `COc1ccc(C(=O)Nc2nc(NC(=O)c3ccc(OC)cc3)n(-c3ccccc3)n2)cc1` [Compound 37] the IC50 (A549 (lung); [2]) was 2.3 µM and the IC50 (LS-174T (colon)) was 2.4 µM.

Work on `Cc1cccc(-n2nc(NC(=O)c3ccccc3C)nc2NC(=O)c2ccccc2C)c1` [Compound 38] yielded an IC50 (A549 (lung); [2]) of 2.1 µM, an IC50 (Calu-6 (lung)) of 2.6 µM and an IC50 (LS-174T (colon)) of 2.3 µM.

With `Cc1ccccc1C(=O)Nc1nc(NC(=O)c2ccccc2C)n(-c2cccc(F)c2)n1` [Compound 39] the IC50 (A549 (lung); [2]) was 1.2 µM, the IC50 (Calu-6 (lung)) was 2.5 µM and the IC50 (LS-174T (colon)) was 2.1 µM.

In the case of `O=C(Nc1nc(NC(=O)c2cccnc2)n(-c2ccccc2)n1)c1cccnc1` [Compound 40], the IC50 (LS-174T (colon)) is reported as greater than 2.5 µM.

Compound `O=C(Nc1nc(NC(=O)c2ccccn2)n(-c2ccccc2)n1)c1ccccn1` [Compound 41] has an IC50 (A549 (lung); [2]) of 2.5 µM and an IC50 (LS-174T (colon)) of 2.5 µM.

Work on `Cc1ccccc1C(=O)Nc1nc(NC(=O)c2ccccc2C)n(-c2ccc(OC(F)(F)F)cc2)n1` [Compound 42, N,N′-(1-(4-(trifluoromethoxy)phenyl)-1H-1,2,4-triazole-3,5-diyl)bis(2-methylbenzamide)] yielded an inhibition at 30 μM (CYP2C9) of 11.8%, a half-life at 1 μM [1] greater than 8.33 h and an IC50 (A549 (lung); A549, Table 6A, 72 hrs, read-out: A549 IC50) of 0.03 µM. For the same compound, the IC50 (A549 (lung); A549, Table 6C, data of FIG. 2, read-out: IC50 (μM) A549 (lung)) was 65 µM, the EC50 (A549 (lung); A549, Table 6D, another set of cell proliferation assay) was 72 nM and the IC50 (HCT-116 (colon); HCT-116, Table 6A, 72 hrs, read-out: HCT-116 IC50) was 0.07 µM. It also gave an IC50 (HCT-116 (colon); HCT-116, Table 6C, data of FIG. 2, read-out: IC50 (μM) HCT-116 (colon)) of 0.08 µM, an EC50 (HCT-116 (colon); HCT-116, Table 6D, another set of cell proliferation assay) of 87 nM and an IC50 (HCT-116 (colon); HCT-116, Table 6E, read-out: Proliferation IC50 (nM) CRC HCT-116) of 0.087 µM. For the same compound, the IC50 (Calu-6 (lung)) was 0.06 µM, the IC50 (LS-174T (colon)) was 0.2 µM and the inhibition at 10 µM (GSK3B (GSK3 beta)) was 12%. It also gave an inhibition at 10 µM (PLK1) of 4%, an inhibition at 10 µM (CDK4/CyclinD3) of 3% and an inhibition at 10 µM (CDK6/CyclinD1) of 0%. The inhibition at 10 µM (CDK2/Cyclin A) was 4%, the inhibition at 10 µM (PIM1) was 5% and the inhibition at 10 µM (MAPK14 (p38 alpha)) was 19%. For the same compound, the inhibition at 10 µM (MAPK1 (ERK2)) was 4%, the inhibition at 10 µM (CDK4/CyclinD1) was 12% and the inhibition at 10 µM (PAK4) was 5%. For the same compound, the inhibition at 10 µM (EGFR (ErbB1)) was 8%, the inhibition at 10 µM (AURKA (Aurora A)) was 4% and the inhibition at 10 µM (ABL1) was 8%.

For `Cc1ccccc1C(=O)Nc1nc(NC(=O)c2ccccc2C)n(-c2ccc(N3CCCCC3)cc2)n1` [Compound 44], the IC50 (A549 (lung); [2]) was 2 µM, the IC50 (Calu-6 (lung)) was greater than 2.5 µM and the IC50 (LS-174T (colon)) was 2.5 µM.

With `Cc1ccccc1C(=O)Nc1nc(NC(=O)c2ccccc2C)n(-c2ccc(F)cc2F)n1` [Compound 46] the IC50 (A549 (lung); [2]) was 2.5 µM and the IC50 (LS-174T (colon)) was 2.5 µM.

`Cc1ccccc1C(=O)Nc1nc(NCc2ccccc2)nn1-c1ccc(C(F)(F)F)cc1` [Compound 102] showed an IC50 (A549 (lung); [2]) greater than 2.5 µM and an IC50 (HCT-116 (colon); [3]) of 2.5 µM.

Compound `Cc1ccnc(-c2nc(NC(=O)c3ccccc3C)n(-c3ccccc3)n2)c1` [Compound 124] has an IC50 (A549 (lung); [2]) of 1.2 µM and an IC50 (Calu-6 (lung)) of 1.4 µM.
